Measured values from patent US20120034608A1, “MICRORNA AS A BIOMARKER OF PANCREATIC ISLET BETA-CELL ENGAGEMENT” (Merck Sharp & Dohme Corp., priority 2009, published 2012).

Tests used:
[1] = test system: INS-1 832/3 cells; experiment: miRNA expression profiling of GLP-1 treated INS-1 832/3 cells (SYBR green qPCR); type: cell-based, rat; details: 50 nM GLP-1 for 24 hours, 16 mM glucose
Description: Glucagon like peptide-1 (GLP-1) exerts pleiotropic effects on pancreatic β-cell function. GLP-1 potentiates glucose-dependent insulin secretion (GDIS) in pancreatic β-cells. Chronic administration of GLP-1 also promotes insulin synthesis as well as β-cell proliferation and neogenesis, at least in animal models. The detailed underlying mechanism remains to be fully understood. […] The expression levels of 250 microRNAs in INS-1 832/3 cell cultured in the presence or absence of 50 nM GLP-1 for 24 hours were compared using quantitative reverse transcription polymerase chain reaction (RT-PCR) method.
For GLP-1 treatment, GLP-1 (7-37) amide (ABCHEM) was added in the media in the presence of 16 mM glucose for 24 hours.
For microRNA profiling, total RNA was extracted from INS-1 832/3 cells with TRIZOL reagent (Invitrogen, Carlsbad, Calif.). A total of 250 miRNA species were determined by SYBR green quantitative PCR (qPCR) method at Rossetta Inpharmatics (Seattle, Wash.). Quantitative PCR is a method used to detect relative or absolute gene expression level. All qPCR involves the use of fluorescence to detect the threshold cycle (Ct) during PCR when the level of fluorescence gives signal over the background and is in the linear portion of the amplified curve. […] In this example, the Ct value data was calculated into copy number per 10 pg total RNA using the standard curve method. […]

[2] = test system: rat pancreatic islets; experiment: miRNA expression in isolated rat islets (TAQMAN); type: cell-based; details: 50 nM GLP-1, 11 mM glucose, 24 hours
Description: INS-1 832/3 and 832/13 cells were maintained in RPMI 1640 with 10% FBS and 11 mM glucose. For GLP-1 treatment, GLP-1 (7-37) amide (ABCHEM) was added in the media in the presence of 16 mM glucose for 24 hours. Total RNA was extracted with TRIZOL as in Example 1. Rat islet isolation and treatment was as follows. Pancreatic islets of Langerhans were isolated from the pancreas of normal Sprague-Dawley rats (Charles River, Ind.) by collagenase digestion and discontinuous Ficoll gradient separation (15). Islets were cultured for 2 hours in RPMI 1640 medium with 11 mM glucose for recovery from the isolation process. Then 100-200 islets were treated with 50 nM GLP-1 in the media with 11 mM glucose for 24 hours. RNA was extracted with TRIZOL as in Example 1 for quantification of microRNA species.
To verify that GLP-1 mediated miR-212 and miR-132 expression changes are of biological relevance, we analyzed their expression in freshly isolated rat islets treated with GLP-1. Pancreatic islets of Langerhans were isolated from the pancreas of normal Sprague-Dawley rats (Charles River, Ind.) by collagenase digestion and discontinuous Ficoll gradient separation. Islets were cultured for two hours in RPMI 1640 medium with 11 mM glucose for recovery from the isolation process. Then 100 to 200 islets were treated with 50 nM GLP-1 in the media with 11 mM glucose for 24 hours. RNA was extracted with TRIZOL reagent/ethanol precipitation followed by quantification of miRNA species. […] The regulation of miR-132 and miR-212 expression by GLP-1 was confirmed in rat pancreatic islets.

[3] = test system: C57/Bl6 mice; experiment: plasma miRNA levels in lean mice after a single injection; type: in vivo, mouse; details: C57/Bl6 mice (FIG. 5 legend)
Description: The plasma levels of miR-132 and miR-212 were measured in lean mice treated with an oxyntomodulin (OXM) derivative (a long-acting GLP-1 receptor agonist disclosed in Published International Application No. WO2007/100535) before and then 24-hours and 48-hours after a single injection of the OXM derivative. Groups of 16 weeks old mice were dosed with 30 mpk OXM derivative (s.c.) or vehicle (3% mannitol, 75 mM NaCl, 20 mM sodium acetate, pH 5) and approximately 50 μL blood each were collected into EDTA tubes before and 24 hours and 48 hours post-dosing. All the blood samples were immediately placed on ice and plasma were prepared within one hour and stored at −80° C. RNA extraction and TAQMAN RT-PCR analysis were as described in Example 3. 50 μL aliquots of the plasma samples were thawed on ice and 2× Denaturing Solution (Ambion) was added. To allow for normalization for sample variations, three C. elegans miRNAs, cel-miR39, cel-miR54, and cel-miR-238, were added at a final concentration of 20, 200, and 2000 fM (sequence information according to miRBase). miR132, miR-212, and miR-375 expression levels were normalized to spiked-in cel-miR39.

[4] = test system: INS-1 832/3 cells; experiment: glucose dependent insulin secretion (GDIS) assay in INS-1 832/3 cells; type: cell-based, rat; details: 16 mM glucose, two-hour incubation in KRB
Description: We overexpressed the precursors of miR-132 and miR-212 to evaluate their possible contribution to β-cell function. MicroRNA miR-375 was included as a control as it been reported to have an inhibitory effect on GDIS (Poy et al., Nature 432: 226-230 (2004)). Chemically modified Pre-miR™ miRNA precursor molecules and Anti-miR™ miRNA inhibitors were purchased from Ambion (Foster City, Calif.). miRCURY LNA™ microRNA knockdown oligonucleotides were purchased from Exiqon (Woburn, Mass.). The oligonucleotide molecules were delivered to the cells by the Nucleofector Device (Amaxa, Gaithersburg, Md.). In brief, INS-1 cells were trypsinized, centrifuged, and resuspended in 100 μl Nucleofector solution V. Then 100-500 pmole RNA oligonucleotides were transfected to 3-million cells at the concentration of 1-5 μM with the Amaxa Nucleofector Device. Scramble controls from the vendors were used with the same transfection method. After electroporation, the cells were transferred to regular culture medium and then split into replicates in 96-well plates. Insulin secretion assay or LANCE cAMP assay were performed 48 hours post electroporation.
INS-1 cell glucose dependent insulin secretion (GDIS) assay was performed as follows. The GDIS assay was performed with cells grown to near confluency in 96-well plates. Prior to the assay, cells were washed once with PBS and pre-incubated for two hours in freshly prepared Krebs-Ringer Bicarbonate (KRB) medium without glucose. The medium were then replaced with KRB with 2, 8 or 16 mM glucose or along with 10 nM GLP-1. The cells were incubated for another two hours in a CO2 incubator. The media was then removed at the end of incubation, and assayed for insulin levels by Ultra-sensitive Rat Insulin ELISA kit (ALPCO, Salem, N.H.) or insulin immunoassay by Gyrolab workstation (GYROS AB, Uppsala, Sweden). Intracellular insulin was extracted by acid ethanol method for measuring intracellular insulin content. Total protein was measured by Pierce 660 nm Protein Assay from Pierce Biotechnology, Inc. (Rockford, Ill.).

Question: How did the “expression of miR-375, miR-9 and miR-124a” value [1] turn out when GLP-1 (7-37) amide was run?
Answer: Its value is “no significant changes”.

Question: What about the “miR-132 expression level increased” value [2] of the same substance?
Answer: Its value is 2 fold.

Question: And the “miR-212 expression level increased” value [2]?
Answer: Its value is 2 fold.

Question: What about the “regulation of miR-375 and miR-217 expression” value [2] of the same substance?
Answer: The value was “Neither miR-375 nor miR-217 was significantly regulated”.

Question: And the “plasma levels of miR-132” value [3]?
Answer: The value was “increased”.

Question: What about the “plasma levels of miR-212” value [3] of the same substance?
Answer: The value was “increased”.

Question: What about the “increase of insulin secretion upon treatment with GLP-1” value [4] of the same substance?
Answer: The value was “greater than 300%”.
